Experimental data as given in patent US20240010639A1, “TRIAZINE DIONE DERIVATIVE, PREPARATION METHOD THEREFOR AND APPLICATION THEREOF IN MEDICINE” (Jiangsu Hengrui Pharmaceuticals Co., Ltd., priority 2020, published 2024).

Tests used:
[1] = Pharmacokinetic evaluation in cynomolgus monkeys; format: in vivo; conditions: for AUC / half-life / Cmax / MRT / Vd/F / CL/F: both (Example 16), male (MYK-461), cynomolgus monkey, plasma; for AUC: read-out: Area under curve AUC; for half-life: read-out: Half-life T1/2 (converted); for Cmax: read-out: Plasma concentration Cmax; for MRT: read-out: Residence time MRT; for Vd/F: read-out: Apparent volume of distribution Vz/F; for CL/F: read-out: Clearance CL/F
Method: (§1) With cynomolgus monkeys as test animals, the plasma concentrations of the test compounds were measured by LC/MS/MS at different time points after intragastric administration and intravenous injection. The pharmacokinetic performance of the compound disclosed herein was studied in cynomolgus monkeys and its pharmacokinetic profile was evaluated.
Pharmacokinetics of the compound of Example 16 in cynomolgus monkeys: 8 cynomolgus monkeys, an equal number of males and females, divided into 2 groups of 4, provided by Shanghai Medicilon Inc.
Pharmacokinetics of compound MYK-461 in cynomolgus monkeys: 6 cynomolgus monkeys, male, divided into 2 groups of 3, provided by Shanghai Medicilon Inc.
(§2) A certain amount of the compound of Example 16 was measured out, and 5% DMSO, 30% PG, 30% PEG400 and 35% normal saline were added to prepare a clear solution.
(§3) A certain amount of compound MYK-461 was measured out, and 5% DMSO, 20% PG, 20% PEG400 and 55% normal saline were added to prepare a clear solution.
Cynomolgus monkeys were fasted overnight and then given compounds by intragastric administration and intravenous injection at doses of 2 mg/kg and 0.5 mg/kg, respectively, and at volumes of 5 mL/kg and 2 mL/kg, respectively.
1.0-mL blood samples were collected from the forelimb veins of the animals in the intragastric administration group before administration and 0.25 h, 0.5 h, 1h, 2 h, 4 h, 6 h, 8 h, 12 h and 24 h after administration, placed into EDTA-K2 anticoagulant tubes, and centrifuged at 10,000 rpm for 5 min (4° C.), and plasma was isolated within 1 h and stored at −80° C. before analysis. The blood collection to centrifugation process was performed under ice bath conditions. Three hours after administration, feeding was resumed, and ad libitum access to water was given.
(§4) Blood samples were collected from the animals in the intravenous injection group before administration and 5 min, 0.25 h, 0.5 h, 1.0 h, 2.0 h, 4.0 h, 8.0 h, 12.0 h and 24.0 h after administration and processed as in the intragastric administration group.
Determination of plasma concentrations in cynomolgus monkeys after intragastric administration and intravenous injection of different concentrations of test compounds: 20 μL of cynomolgus monkey plasma at each time point post-dose was mixed with an internal standard solution (internal standard for the compound of Example 16: 10 ng/mL verapamil; internal standard for compound MYK-461: 100 ng/mL camptothecin) and 400 μL of methanol; the mixture was vortexed for 1 min and centrifuged at 18,000 g for 7 min, and 200 μL of the supernatant was transferred to a 96-well plate: 2 μL of the supernatant was taken for LC/MS/MS analysis.

[2] = Pharmacokinetic evaluation in beagles; format: in vivo; conditions: for AUC / half-life / Cmax / MRT / Vd/F / CL/F: both (Example 16), male (MYK-461), beagle, dog, plasma; for AUC: read-out: Area under curve AUC; for half-life: read-out: Half-life T1/2 (converted); for Cmax: read-out: Plasma concentration Cmax; for MRT: read-out: Residence time MRT; for Vd/F: read-out: Apparent volume of distribution Vz/F; for CL/F: read-out: Clearance CL/F
Method: as §1, with “beagles” for “cynomolgus monkeys”
Pharmacokinetics of the compound of Example 16 in beagles: 8 beagles, an equal number of males and females, divided into 2 groups of 4, provided by Shanghai Medicilon Inc. Pharmacokinetics of compound MYK-461 in beagles: 6 beagles, male, divided into 2 groups of 3, provided by Shanghai Medicilon Inc.
as §2, §3
Beagles were fasted overnight and then given compounds by intragastric administration and intravenous injection at doses of 2 mg/kg and 0.5 mg/kg, respectively, and at volumes of 5 mL/kg and 2 mL/kg, respectively.
1.0-mL blood samples were collected from the jugular veins or forelimb veins of the animals in the intragastric administration group before administration and 0.25 h, 0.5 h, 1.0 h, 2.0 h, 4.0 h, 6.0 h, 8.0 h, 12.0 h and 24.0 h after administration, placed into EDTA-K2 anticoagulant tubes, and centrifuged at 10,000 rpm for 5 min (4° C.), and plasma was isolated within 1 h and stored at −80° C. before analysis. The blood collection to centrifugation process was performed under ice bath conditions. Three hours after administration, feeding was resumed.
as §4
Determination of plasma concentrations in beagles after intragastric administration and intravenous injection of different concentrations of test compounds: 30 μL of beagle plasma at each time point post-dose was mixed with an internal standard solution (internal standard for the compound of Example 16: 100 ng/mL warfarin; internal standard for compound MYK-461: 100 ng/mL tolbutamide) and 300 μL of methanol; the mixture was vortexed for 1 min and centrifuged at 18,000 g for 7 min, and 200 μL of the supernatant was transferred to a 96-well plate; 1 μL of the supernatant was taken for LC/MS/MS analysis.

[3] = intravenous injection, 0.5 mg/kg
[4] = po, intragastric administration, 2 mg/kg

T1/2 comparison (in words) [1]	AUC [1, 3] [ng·h/mL]	half-life [1, 3] [h]	Cmax [1, 3] [ng/mL]	MRT [1, 3] [h]	Vd/F [1, 4] [L/kg]	AUC [1, 4] [ng·h/mL]	CL/F [1, 4] [mL/min/kg]	half-life [1, 4] [h]	Cmax [1, 4] [ng/mL]	MRT [1, 4] [h]	Apparent volume of distribution Vz/F [1, 3] [L/kg]	Clearance CL/F [1, 3] [mL/min/kg]	T1/2 comparison (in words) [2]	AUC [2, 3] [ng·h/mL]	half-life [2, 3] [h]	Cmax [2, 3] [ng/mL]	MRT [2, 3] [h]	Vd/F [2, 4] [L/kg]	AUC [2, 4] [ng·h/mL]	SMILES	other results
longer T1/2	976	27.3	222	42.8	11.4	3520	2.34	78.3	563	114	8.203	5.02	longer T1/2	1380	47.2	215	72.2	3.9	8720	CC(C)n1c(=O)cc(N[C@@H](C)c2ccccc2)[nH]c1=O [MYK-461, reference compound]	CL/F [2, 4]: 1.48 mL/min/kg; half-life [2, 4]: 38.9 h; Cmax [2, 4]: 1440 ng/mL; MRT [2, 4]: 59.2 h; Apparent volume of distribution Vz/F [2, 3]: 6.308 L/kg; Clearance CL/F [2, 3]: 1.63 mL/min/kg
significantly shorter T1/2	1020	5.6	1660	6.8	10.3	2400	11.8	10.3	553	12.5	3.579	7.46	significantly shorter T1/2	716	5.6	1080	7.5	6.05	3100	Cc1ccc(F)c([C@H](C)Nc2nc(=O)n(C3CCOCC3)c(=O)[nH]2)c1 [Example 16, (S)-6-((1-(2-Fluoro-5-methylphenyl)ethyl)amino)-3-(tetrahydro-2H-pyran-4-yl)-1,3,5-triazine-2,4(1H,3H)-dione]	absorption profile (in words) [1]: good absorption profile; absorption profile (in words) [2]: good absorption profile; CL/F [2, 4]: 9.26 mL/min/kg; half-life [2, 4]: 7.5 h; Cmax [2, 4]: 1540 ng/mL; MRT [2, 4]: 9.5 h; Apparent volume of distribution Vz/F [2, 3]: 5.022 L/kg; Clearance CL/F [2, 3]: 10.4 mL/min/kg
